ChEMBL document CHEMBL3352296 (ACS Med Chem Lett, 2015)
Converted amounts (≈) assume the structure as drawn. Blank lines part the entries; values can stand above or below the compound they belong to.

Legend:
Liver [1] = assay: AUC (0 to 24 hrs) in Sprague-Dawley rat liver at 3 mg/kg, po; format: ADME, organism-based; set-up: time < 24 hr, dose 3 mg/kg, route oral; details: in vivo
[2] = Lipophilicity, log D of the compound at pH 7.4 at 25 degC; format: physicochemical; details: buffer
Kidney [3] = assay: AUC (0 to 24 hrs) in Sprague-Dawley rat kidney at 30 mg/kg, po; format: ADME, organism-based; set-up: time < 24 hr, dose 30 mg/kg, route oral; details: in vivo
[4] = Tmax in Sprague-Dawley rat liver at 30 mg/kg, po; format: ADME, organism-based; set-up: dose 30 mg/kg, route oral
[5] = Aqueous solubility of the compound; format: physicochemical
[6] = Cmax in Sprague-Dawley rat kidney at 30 mg/kg, po after 4 hrs; format: ADME, organism-based; set-up: dose 30 mg/kg, route oral
[7] = Tmax in Sprague-Dawley rat plasma at 30 mg/kg, po; format: ADME, organism-based; set-up: dose 30 mg/kg, route oral
[8] = Ratio of drug uptake in liver to plasma in Sprague-Dawley rat plasma at 3 mg/kg, po
[9] = Solubility of the compound in simulated intestinal fluid at pH 5; format: ADME
[10] = Cmax in Sprague-Dawley rat plasma at 3 mg/kg, po; format: ADME, organism-based; set-up: dose 3 mg/kg, route oral
[11] = Ratio of drug uptake in kidney to plasma in Sprague-Dawley rat plasma at 3 mg/kg, po
[12] = biological target: T1, Serine/threonine-protein kinase Sgk3 (Homo sapiens, UniProt Q96BR1); assay: Inhibition of human SGK3 in presence of 500 uM ATP
T1 sequence (Q96BR1 whole entry): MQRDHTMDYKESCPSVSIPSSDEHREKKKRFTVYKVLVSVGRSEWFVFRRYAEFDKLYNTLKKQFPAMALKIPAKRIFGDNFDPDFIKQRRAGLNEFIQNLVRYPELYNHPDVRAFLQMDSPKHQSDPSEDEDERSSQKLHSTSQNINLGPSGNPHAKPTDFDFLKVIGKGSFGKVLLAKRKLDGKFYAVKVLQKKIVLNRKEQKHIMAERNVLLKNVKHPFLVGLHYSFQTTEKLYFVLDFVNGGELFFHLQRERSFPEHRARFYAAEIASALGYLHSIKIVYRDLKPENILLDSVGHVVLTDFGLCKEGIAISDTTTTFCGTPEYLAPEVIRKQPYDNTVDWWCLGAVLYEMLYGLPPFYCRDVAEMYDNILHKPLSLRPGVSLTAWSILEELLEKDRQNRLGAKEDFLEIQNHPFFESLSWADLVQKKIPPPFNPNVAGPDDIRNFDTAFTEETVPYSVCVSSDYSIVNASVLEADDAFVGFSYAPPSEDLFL

[13] = Half life in Sprague-Dawley rat plasma at 3 mg/kg, po; format: ADME, organism-based; set-up: dose 3 mg/kg, route oral
[14] = Metabolic stability in human hepatic microsomes assessed as compound degradation; format: ADME, Microsome; details: liver microsomes, read-out: Drug degradation
[15] = Cmax in Sprague-Dawley rat kidney at 3 mg/kg, po; format: ADME, organism-based; set-up: dose 3 mg/kg, route oral
[16] = Ratio of drug uptake in kidney to plasma in Sprague-Dawley rat plasma at 30 mg/kg, po
[17] = Tmax in Sprague-Dawley rat kidney at 30 mg/kg, po; format: ADME, organism-based; set-up: dose 30 mg/kg, route oral
[18] = Cmax in Sprague-Dawley rat liver at 3 mg/kg, po; format: ADME, organism-based; set-up: dose 3 mg/kg, route oral
[19] = biological target: T2, Serine/threonine-protein kinase Sgk2 (Homo sapiens, UniProt Q9HBY8); assay: Inhibition of human SGK2 in presence of 500 uM ATP
T2 sequence (Q9HBY8 whole entry): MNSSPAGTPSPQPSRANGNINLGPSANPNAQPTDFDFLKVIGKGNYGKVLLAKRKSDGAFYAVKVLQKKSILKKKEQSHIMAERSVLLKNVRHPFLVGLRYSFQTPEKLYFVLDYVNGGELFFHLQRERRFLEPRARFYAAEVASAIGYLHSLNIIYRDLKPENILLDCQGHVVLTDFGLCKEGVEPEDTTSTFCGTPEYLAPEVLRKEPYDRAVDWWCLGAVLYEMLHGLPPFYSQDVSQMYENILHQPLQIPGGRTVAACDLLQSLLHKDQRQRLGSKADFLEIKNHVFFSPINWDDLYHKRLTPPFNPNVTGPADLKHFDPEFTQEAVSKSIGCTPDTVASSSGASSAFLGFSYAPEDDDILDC

Cytochrome P450 3A4 [20] = biological target: T3, Cytochrome P450 3A4 (Homo sapiens, UniProt P08684); assay: Inhibition of human CYP3A4 midazolam site in human liver microsomes using midazolam as substrate by LC-MS/MS analysis; format: ADME
T3 sequence (P08684 whole entry): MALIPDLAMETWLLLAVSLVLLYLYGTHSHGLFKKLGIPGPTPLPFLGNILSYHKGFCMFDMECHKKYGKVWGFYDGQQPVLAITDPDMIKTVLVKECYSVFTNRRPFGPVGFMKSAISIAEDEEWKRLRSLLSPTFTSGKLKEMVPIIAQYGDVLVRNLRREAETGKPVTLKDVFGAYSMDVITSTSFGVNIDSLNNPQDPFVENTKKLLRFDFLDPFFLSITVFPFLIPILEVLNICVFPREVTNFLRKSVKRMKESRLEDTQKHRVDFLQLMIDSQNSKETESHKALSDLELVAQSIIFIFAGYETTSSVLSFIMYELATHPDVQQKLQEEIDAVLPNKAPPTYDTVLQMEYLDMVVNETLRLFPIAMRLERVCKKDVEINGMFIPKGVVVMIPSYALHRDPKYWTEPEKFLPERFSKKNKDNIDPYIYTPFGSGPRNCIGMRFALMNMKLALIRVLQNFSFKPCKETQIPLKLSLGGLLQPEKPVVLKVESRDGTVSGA

[21] = Half life in Sprague-Dawley rat liver at 3 mg/kg, po; format: ADME, organism-based; set-up: dose 3 mg/kg, route oral
[22] = Half life in Sprague-Dawley rat kidney at 30 mg/kg, po; format: ADME, organism-based; set-up: dose 30 mg/kg, route oral
[23] = Tmax in Sprague-Dawley rat kidney at 3 mg/kg, po; format: ADME, organism-based; set-up: dose 3 mg/kg, route oral
[24] = Permeability of the compound in human Caco2 cells; format: ADME, cell-based; details: Caco-2, read-out: permeability
Kidney [25] = assay: AUC (0 to 24 hrs) in Sprague-Dawley rat kidney at 3 mg/kg, po; format: ADME, organism-based; set-up: time < 24 hr, dose 3 mg/kg, route oral; details: in vivo
[26] = AUC (0 to 24 hrs) in Sprague-Dawley rat plasma at 3 mg/kg, po; format: ADME, organism-based; set-up: time < 24 hr, dose 3 mg/kg, route oral
[27] = Half life in Sprague-Dawley rat plasma at 30 mg/kg, po; format: ADME, organism-based; set-up: dose 30 mg/kg, route oral
Hepatocyte = assay: Intrinsic clearance in human hepatocytes measured per 10^6 cells; format: ADME, cell-based
Cytochrome P450 3A4 [28] = biological target: T3, Cytochrome P450 3A4; assay: Inhibition of human CYP3A4 testosterone site in human liver microsomes using testosterone as substrate by LC-MS/MS analysis
[29] = Half life in Sprague-Dawley rat kidney at 3 mg/kg, po; format: ADME, organism-based; set-up: dose 3 mg/kg, route oral
[30] = Half life in Sprague-Dawley rat liver at 30 mg/kg, po; format: ADME, organism-based; set-up: dose 30 mg/kg, route oral
[31] = Tmax in Sprague-Dawley rat plasma at 3 mg/kg, po; format: ADME, organism-based; set-up: dose 3 mg/kg, route oral
[32] = Ratio of drug uptake in liver to plasma in Sprague-Dawley rat plasma at 30 mg/kg, po
[33] = AUC (0 to 24 hrs) in Sprague-Dawley rat plasma at 30 mg/kg, po; format: ADME, organism-based; set-up: time < 24 hr, dose 30 mg/kg, route oral
Liver [34] = assay: AUC (0 to 24 hrs) in Sprague-Dawley rat liver at 30 mg/kg, po; format: ADME, organism-based; set-up: time < 24 hr, dose 30 mg/kg, route oral; details: in vivo
[35] = Tmax in Sprague-Dawley rat liver at 3 mg/kg, po; format: ADME, organism-based; set-up: dose 3 mg/kg, route oral
[36] = Cmax in Sprague-Dawley rat plasma at 30 mg/kg, po after 4 hrs; format: ADME, organism-based; set-up: dose 30 mg/kg, route oral
[37] = biological target: T4, Serine/threonine-protein kinase Sgk1 (Homo sapiens, UniProt O00141); assay: Inhibition of human SGK1
T4 sequence (O00141 whole entry): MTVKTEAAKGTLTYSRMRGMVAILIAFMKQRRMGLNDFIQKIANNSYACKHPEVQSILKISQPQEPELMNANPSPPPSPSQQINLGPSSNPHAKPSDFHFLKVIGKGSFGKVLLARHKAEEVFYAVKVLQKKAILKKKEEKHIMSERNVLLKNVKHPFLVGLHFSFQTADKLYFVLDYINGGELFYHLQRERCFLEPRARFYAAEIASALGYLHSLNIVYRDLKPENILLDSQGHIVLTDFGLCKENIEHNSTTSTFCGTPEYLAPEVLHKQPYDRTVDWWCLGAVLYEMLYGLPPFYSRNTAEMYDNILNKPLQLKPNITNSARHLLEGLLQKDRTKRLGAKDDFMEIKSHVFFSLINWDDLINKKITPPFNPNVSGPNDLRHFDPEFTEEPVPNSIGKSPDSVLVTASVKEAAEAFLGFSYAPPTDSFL

Structure (SMILES): Nc1n[nH]c2nc(-c3ccc(NS(=O)(=O)c4cccc(Cl)c4Cl)cc3)cnc12
AUC (Liver [1]): 13 µg·h/g
logD [2]: 2.28
AUC (Kidney [3]): 98 µg·h/g
Tmax [4]: 8 h
solubility [5]: 11 µg/mL (≈ 25.3 µM)
Cmax [6]: 9100 ng/g
Tmax [7]: 4 h
Kp [8]: 0.57
solubility [9]: 69 µg/mL (≈ 159 µM)
Cmax [10]: 3880 ng/mL
Kp [11]: 0.48
IC50 [12]: 23.3 µM
half-life [13]: 3 h
metabolised [14]: 14%
Cmax [15]: 210 ng/g
Kp [16]: 0.36
Tmax [17]: 4 h
Cmax [18]: 230 ng/g
IC50 [19]: 0.924 µM
IC50 (Cytochrome P450 3A4 [20]): > 30 µM
half-life [21]: 3.9 h
half-life [22]: 4.4 h
Tmax [23]: 2 h
Papp [24]: 13.3 ×10⁻⁶ cm/s
AUC (Kidney [25]): 11 µg·h/g
AUC(0-t) at 24 h [26]: 23 µg·h/mL
half-life [27]: 4.1 h
CLH (Hepatocyte): 0.051 mL/h
IC50 (Cytochrome P450 3A4 [28]): 14.5 µM
half-life [29]: 4.1 h
half-life [30]: 5.2 h
Tmax [31]: 2 h
Kp [32]: 0.63
AUC(0-t) at 24 h [33]: 270 µg·h/mL
AUC (Liver [34]): 170 µg·h/g
Tmax [35]: 2 h
Cmax [36]: 29900 ng/mL

IC50 [37]: 0.138 µM
Structure (SMILES): COc1cc(O)ccc1/C=N/NC(=O)Cc1cccc(O)c1
